How the values were obtained:
ATF6 [1] = molecular target: T1, ATF6 (Homo sapiens, UniProt P18850); assay: ERSE ATF6-luciferase assay in absence of ER stress (U2-OS ATF6 TRE-luciferase reporter cells); format: cell-based; conditions: normalized to maximal activation with Tg; for ATF6 activity @ 1 μM-No Tg [%] / ATF6 activity @ 10 μM - No Tg [%] / activation at 1 µM / activation at 10 µM: in absence of ER stress (no Tg); for ATF6 activity @ 1 μM-No Tg [%] / ATF6 activity @ 10 μM - No Tg [%]: Table 3-3; for ATF6 activity @ 10 μM - No Tg [%] / activation at 10 µM: 10 μM test compound; for activation at 1 µM / activation at 10 µM: U2OS, 8 h; for activation at 1 µM: Table 3-3, read-out: ATF6 activity @ 1 μM-No Tg [%]; for activation at 10 µM: Table 3-3, read-out: ATF6 activity @ 10 μM - No Tg [%]
T1 construct: endogenous in cells; host or cells: U2-OS (ATCC HTB-96) stably transduced with the Cignal Lenti ATF6 luc reporter (Qiagen #CLS-6031L)
T1 sequence (P18850 1-670): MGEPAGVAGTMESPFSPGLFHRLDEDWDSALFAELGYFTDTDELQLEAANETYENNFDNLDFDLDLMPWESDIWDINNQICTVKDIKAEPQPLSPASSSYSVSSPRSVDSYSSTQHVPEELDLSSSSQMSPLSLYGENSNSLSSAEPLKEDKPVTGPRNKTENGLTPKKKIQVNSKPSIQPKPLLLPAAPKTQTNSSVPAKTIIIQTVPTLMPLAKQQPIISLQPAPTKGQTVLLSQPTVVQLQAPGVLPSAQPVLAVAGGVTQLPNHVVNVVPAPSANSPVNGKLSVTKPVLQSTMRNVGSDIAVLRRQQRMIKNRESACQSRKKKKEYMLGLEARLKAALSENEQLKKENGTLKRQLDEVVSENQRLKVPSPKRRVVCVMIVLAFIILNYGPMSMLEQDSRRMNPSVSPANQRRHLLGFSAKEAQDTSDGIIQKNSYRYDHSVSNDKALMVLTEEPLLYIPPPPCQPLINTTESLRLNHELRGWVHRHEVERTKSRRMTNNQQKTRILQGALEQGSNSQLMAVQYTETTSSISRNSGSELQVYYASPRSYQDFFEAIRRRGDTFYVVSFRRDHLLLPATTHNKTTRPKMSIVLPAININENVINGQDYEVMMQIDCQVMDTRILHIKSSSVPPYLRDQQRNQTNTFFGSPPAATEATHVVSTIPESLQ
Description: (§1) To understand how exemplary compounds of the invention modulate the activity of ATF6 in absence or presence of endoplasmic reticulum (ER) stress, a Human bone osteosarcoma (U2-OS)-based TRE-luciferase reporter stable cell line was generated to determine the modulation of transcription of ATF6 target genes.
(§2) U2-OS cells were obtained from the American Type Culture Collection (ATCC HTB-96, ATCC Manassas, VA) and were cultured with growing medium containing Dulbecco's Modified Eagle's Medium (DMEM) (Cat. No.: SH30023.02, HyClone) supplemented with fetal bovine serum (FBS) 10% (Cat. No.: 16000044, Gibco) and 1% penicillin-streptomycin antibiotic cocktail (Cat. No.: SV30010, Hyclone).
(§3) Cignal Lenti ATF6 luc reporter (Qiagen #CLS-6031L) was used to produce a stable cell line in U2-OS cells (U2-OS ATF6 TRE-luciferase reporter). The lenti ATF6 reporter is a preparation of replication incompetent, VSV-g pseudotyped lentivirus particles expressing the firefly luciferase gene under the control of a minimal (m)CMV promoter and tandem repeats of the ATF6 transcriptional response element (TRE). The number of response elements as well as the intervening sequence between response elements has been experimentally optimized to maximize the signal to noise ratio.
(§4) Exemplary compounds of the invention and reference compounds were prepared from powder as 10 mM stock solutions in dimethyl sulfoxide (DMSO; Cat. No. #D2650, Sigma Aldrich) and stored at −80° C. in presence of N2 neutral atmosphere.
(§5) For the primary screening, 40,000 U2-OS ATF6 TRE-luciferase reporter cells were plated in poly-D-lysine (Cat. No.: P2636, Sigma) pre-coated white 96-well plates (Thermo Scientific Nunc #136101) with 100 μL of growing medium. Cells were incubated in humidified chambers for 24 hr.
For testing exemplary compounds in absence of ER-stress, cells were treated for 8 hr with 100 μL growing medium containing either vehicle (DMSO), 1 or 10 μM test compound or 0.1 μM Tg. The final concentration of DMSO in each well was kept at 0.3%. Plates were incubated in humidified chambers.
After 8 hr of incubation, plates were cooled down to room temperature for 10 min prior to luciferase assays. Luciferase reactions were performed as above. Luminescence was read by integration of 1 s with a gain of 110 in a Synergy 4 Microplate reader. All measurements were carried out in triplicate.
The average activity determined from the wells containing vehicle only (DMSO, 0% of ATF6 activity) was used as blank and subtracted from the rest of measurements. The percentage of modulation of exemplary compound was calculated by normalizing values to potential maximal activation with Tg.
ATF6 activities of exemplary compounds at 1 and 10 μM in absence of Tg-induced ER stress in the U2-OS ATF6 TRE-luciferase reporter cells were determined and are shown in Table 3-2, and Table 3-3.

ATF6 [2] = molecular target: T1, ATF6; assay: ERSE ATF6-luciferase assay in presence of Tg-induced ER stress (U2-OS ATF6 TRE-luciferase reporter cells); format: cell-based; conditions: in presence of ER stress (thapsigargin), Tg only = 100%; for ATF6 activity @ 1 μM [%] / activity at 1 µM: 1 μM test compound; for ATF6 activity @ 1 μM [%] / ATF6 activity @ 10 μM [%]: 8 hr; for ATF6 activity @ 10 μM [%] / activity at 10 µM: 10 μM test compound; for activity at 10 µM / activity at 1 µM: U2OS, 8 h
Description: as §1, §2, §3, §4, §5
For testing exemplary compounds in presence of ER-stress, cells were pre-treated for 30 min with 50 μL growing medium containing either vehicle (DMSO), 1 or 10 μM test compound. After this pre-incubation, 50 μL of a solution containing 0.2 μM of the ER stress-inducer thapsigargin (Tg) was added to the appropriate wells. The Tg solution also contains vehicle or test compounds at 1 or 10 μM as indicated. The final concentration of DMSO in each well was kept at 0.3%. Plates were incubated for 8 hr in humidified chambers.
After the 8 hr incubation, plates were cooled down to room temperature for 10 min prior to the luciferase assays. Luciferase reactions were performed using Luciferase Assay System (Cat. No.: E4550, Promega). Briefly, each well was washed with 100 μl of PBS 1× and, then, 20 μl of lysis reagent was added into each well. Plates were shaken for 10 min and, then, 50 μl of Luciferase Assay Reagent was added to each well. Luminescence was determined by integration of 1 s with a gain of 110 in a Synergy 4 Microplate reader. All measurements were carried out in triplicate.
The average activity determined from the wells containing vehicle only (DMSO, 0% of ATF6 activity) was used as blank and subtracted from the rest of measurements. The average activity determined from the wells containing Tg only was used as 100% of ATF6 activity. The percentage of modulation of exemplary compounds was calculated by normalizing values to potential maximal activation with Tg.
ATF6 activities of exemplary compounds at 1 and 10 μM in presence Tg-induced ER stress tested in the U2-OS ATF6 TRE-luciferase reporter cells were determined and are shown in Table 2-2 and Table 3-2.

Row | SMILES | activity at 10 µM (ATF6 [2]; Table 2-3) [%] | activation at 1 µM (ATF6 [1]; 1 μM test compound) [%] | activation at 10 µM (ATF6 [1]) [%] | activity at 1 µM (ATF6 [2]; Table 2-3) [%] | ATF6 activity @ 1 μM-No Tg [%] (ATF6 [1]; 1 μM test compound, 8 hr) | ATF6 activity @ 10 μM - No Tg [%] (ATF6 [1]; 8 hr) | ATF6 activity @ 1 μM [%] (ATF6 [2]; Table 2-3) | ATF6 activity @ 10 μM [%] (ATF6 [2]; Table 2-3) | ATF6 activity @ 1 μM [%] (ATF6 [1]; 1 μM test compound, in absence of ER stress, 8 hr, Table 3-2) | ATF6 activity @ 1 μM [%] (ATF6 [2]; Table 2-2) | ATF6 activity @ 10 μM [%] (ATF6 [2]; Table 2-2)
1 | O=C(Nc1cnn(C2CCOC2)c1)c1cc(-c2cccs2)on1 (single isomer, unassigned) [Compound 3-23, N-(1-(tetrahydrofuran-3-yl)-1H-pyrazol-4-yl)-5-(thiophen-2-yl)isoxazole-3-carboxamide] |  |  |  |  | ++ (++ refers to 25% < % activity < 50% at 1 or 10 μM test compound) | +++ (+++ refers to % activity >50 % at 1 or 10 μM test compound) | +++ (+++ refers to >150% at 1 or 10 μM test compound) | +++ (+++ refers to >150% at 1 or 10 μM test compound) |  |  | 
2 | CC(C1CCOC1)n1cc(NC(=O)c2cc(-c3ccco3)on2)cn1 (centres unmarked) [Compound 3-26, 5-(furan-2-yl)-N-(1-(1-(tetrahydrofuran-3-yl)ethyl)-1H-pyrazol-4-yl)isoxazole-3-carboxamide] |  |  |  |  | + (+ refers to 0% < % activity < 25% at 1 or 10 μM test compound) | +++ (+++ refers to % activity >50 % at 1 or 10 μM test compound) | +++ (+++ refers to >150% at 1 or 10 μM test compound) | +++ (+++ refers to >150% at 1 or 10 μM test compound) |  |  | 
3 | CC(C1CCOC1)n1cc(NC(=O)c2cc(-c3ccco3)on2)cn1 (centres unmarked) [Compound 3-27, 5-(furan-2-yl)-N-(1-(1-(tetrahydrofuran-3-yl)ethyl)-1H-pyrazol-4-yl)isoxazole-3-carboxamide] |  |  |  |  | + (+ refers to 0% < % activity < 25% at 1 or 10 μM test compound) | ++ (++ refers to 25% < % activity < 50% at 1 or 10 μM test compound) | + (+ refers to 100% < % activity < 125% at 1 or 10 μM) | +++ (+++ refers to >150% at 1 or 10 μM test compound) |  |  | 
4 | O=C(Nc1cnn(C2CCOC2)c1)c1cc(-c2ccccn2)on1 (single isomer, unassigned) [Compound 3-21, 5-(pyridin-2-yl)-N-(1-(tetrahydrofuran-3-yl)-1H-pyrazol-4-yl)isoxazole-3-carboxamide] |  |  |  |  | + (+ refers to 0% < % activity < 25% at 1 or 10 μM test compound) | ++ (++ refers to 25% < % activity < 50% at 1 or 10 μM test compound) | +++ (+++ refers to >150% at 1 or 10 μM test compound) | +++ (+++ refers to >150% at 1 or 10 μM test compound) |  |  | 
5 | O=C(Nc1cnn(Cc2ccc(C(F)(F)F)cc2)c1)c1cc(-c2ccco2)on1 [Ceapin-A8, reference compound] |  |  |  |  |  |  | + (+ refers to 100% < % activity < 125% at 1 or 10 μM) | − (− refers to 75% < % activity < 100% at 1 or 10 μM) | + (+ refers to 0% < % activity < 25% at 1 or 10 μM test compound) | + (+ refers to 100% < % activity < 125% at 1 or 10 μM) | − (− refers to 75% < % activity < 100% at 1 or 10 μM)

Continued, in another order:

Row | activity at 10 µM (ATF6 [2]; Table 2-3) [%] | activation at 1 µM (ATF6 [1]; 1 μM test compound) [%] | activation at 10 µM (ATF6 [1]) [%] | activity at 1 µM (ATF6 [2]; Table 2-3) [%] | SMILES | ATF6 activity @ 1 μM-No Tg [%] (ATF6 [1]; 1 μM test compound, 8 hr) | ATF6 activity @ 10 μM - No Tg [%] (ATF6 [1]; 8 hr) | ATF6 activity @ 1 μM [%] (ATF6 [2]; Table 2-3) | ATF6 activity @ 10 μM [%] (ATF6 [2]; Table 2-3) | ATF6 activity @ 1 μM [%] (ATF6 [1]; 1 μM test compound, in absence of ER stress, 8 hr, Table 3-2) | ATF6 activity @ 1 μM [%] (ATF6 [2]; Table 2-2) | ATF6 activity @ 10 μM [%] (ATF6 [2]; Table 2-2)
6 | > 150 |  |  |  | O=C(Nc1cnn(C2CCOC2)c1)c1cc(-c2cccs2)on1 (single isomer, unassigned) [Compound 3-22, N-(1-(tetrahydrofuran-3-yl)-1H-pyrazol-4-yl)-5-(thiophen-2-yl)isoxazole-3-carboxamide] | + (+ refers to 0% < % activity < 25% at 1 or 10 μM test compound) | ++ (++ refers to 25% < % activity < 50% at 1 or 10 μM test compound) | ++ (++ refers to 125% < % activity < 150% at 1 or 10 μM test compound) |  |  |  | 
7 | > 150 | 0 to 25 | 0 to 25 | > 150 | O=C(Nc1cnn(C2CCCC2)c1)c1cc(-c2ccco2)on1 [Compound 3-1, N-(1-cyclopentyl-1H-pyrazol-4-yl)-5-(furan-2-yl)isoxazole-3-carboxamide] |  |  |  |  |  |  | 
8 | > 150 | 0 to 25 | 0 to 25 | > 150 | O=C(Nc1cnn(CC2CCCC2)c1)c1cc(-c2ccco2)on1 [Compound 3-2, N-(1-(cyclopentylmethyl)-1H-pyrazol-4-yl)-5-(furan-2-yl)isoxazole-3-carboxamide] |  |  |  |  |  |  | 
9 | > 150 | 0 to 25 | 0 to 25 | 125 to 150 | CC(C1CCCC1)n1cc(NC(=O)c2cc(-c3ccco3)on2)cn1 (centres unmarked) [Compound 3-5, N-(1-(1-cyclopentylethyl)-1H-pyrazol-4-yl)-5-(furan-2-yl)isoxazole-3-carboxamide] |  |  |  |  |  |  | 
10 | > 150 | 0 to 25 |  |  | O=C(Nc1cnn(C2CCOC2)c1)c1cc(-c2ccccn2)on1 (single isomer, unassigned) [Compound 3-20, 5-(pyridin-2-yl)-N-(1-(tetrahydrofuran-3-yl)-1H-pyrazol-4-yl)isoxazole-3-carboxamide] |  | + (+ refers to 0% < % activity < 25% at 1 or 10 μM test compound) | + (+ refers to 100% < % activity < 125% at 1 or 10 μM) |  |  |  | 
